Values after ≈ are worked out from the molar mass of the structure shown.
Tested on: S. pneumoniae
Test: Bacterial susceptibility testing, microbroth dilution (MIC)
Type: cell-based
Details: Streptococcus pneumoniae; lowest drug concentration able to reduce growth by 80% or more; read-out: MIC (μg/ml) against S. pneumoniae
Method: Compounds were tested for antimicrobial activity by susceptibility testing using microbroth dilution methods recommended by NCCLS. Compounds were dissolved in dimethylsulfoxide and tested in 10 doubling dilutions in the susceptibility assays such that the final dimethylsulfoxide concentration in the assay was 2% (v/v). The organisms used in the assay were grown overnight on appropriate agar media and then suspended in the NCCLS-recommended liquid susceptibility-testing media. The turbidity of each suspension was adjusted to be equal to a 0.5 McFarland standard, a further 1-in-10 dilution was made into the same liquid medium to prepare the final organism suspension, and 100 μL of this suspension was added to each well of a microtiter plate containing compound dissolved in 2 μL of dimethylsulfoxide. Plates were incubated under appropriate conditions of atmosphere and temperature and for times according to NCCLS standard methods prior to being read. The Minimum Inhibitory Concentration (MIC) was determined as the lowest drug concentration able to reduce growth by 80% or more.

Row | Compound | MIC
1 | Nc1nc(OCC2CCCC2)nc2c1ncn2[C@@H]1O[C@H](CO)[C@@H](O)[C@H]1O [Example 172, 2-(Cyclopentyl)methoxy-9-β-D-ribofuranosyl-9H-purine-6-amine] | 2 µg/mL (≈ 5.47 µM)
2 | COc1cccc(CO[C@H]2[C@@H](O)[C@H](n3cnc4c(N)nc(OC5CCCC5)nc43)O[C@@H]2C)c1 [Example 356] | 4 µg/mL (≈ 8.78 µM)

Now from value to molecule:

Row | MIC | Compound
3 | 8 µg/mL (≈ 26.4 µM) | Nc1nc(OC2CCCCC2)nc2c1ncn2C1CCCO1 (stereo not shown) [Example 27, 2-(cyclohexyloxy)-9-(tetrahydrofuran-2-yl)-9H-purin-6-amine]
4 | 4 µg/mL (≈ 11.2 µM) | Nc1nc(OC2CCC3CCCCC3C2)nc2c1ncn2C1CCCO1 (stereo not shown) [Example 62, 2-(decahydronaphthalen-2-yloxy)-9-(tetrahydrofuran-2-yl)-9H-purin-6-amine]
5 | 8 µg/mL (≈ 20.2 µM) | Nc1nc(OC2CCCC2)nc2c1ncn2[C@@H]1O[C@H](COCCO)[C@@H](O)[C@H]1O [Example 129, 2-(cyclopentyloxy)-9-[5-O-(2-hydroxyethyl)-β-D-ribofuranosyl]-9H-purin-6-amine]

Target: S. pneumoniae LigA (Streptococcus pneumoniae serotype 4, UniProt Q97QT2)
Sequence (Q97QT2 whole entry): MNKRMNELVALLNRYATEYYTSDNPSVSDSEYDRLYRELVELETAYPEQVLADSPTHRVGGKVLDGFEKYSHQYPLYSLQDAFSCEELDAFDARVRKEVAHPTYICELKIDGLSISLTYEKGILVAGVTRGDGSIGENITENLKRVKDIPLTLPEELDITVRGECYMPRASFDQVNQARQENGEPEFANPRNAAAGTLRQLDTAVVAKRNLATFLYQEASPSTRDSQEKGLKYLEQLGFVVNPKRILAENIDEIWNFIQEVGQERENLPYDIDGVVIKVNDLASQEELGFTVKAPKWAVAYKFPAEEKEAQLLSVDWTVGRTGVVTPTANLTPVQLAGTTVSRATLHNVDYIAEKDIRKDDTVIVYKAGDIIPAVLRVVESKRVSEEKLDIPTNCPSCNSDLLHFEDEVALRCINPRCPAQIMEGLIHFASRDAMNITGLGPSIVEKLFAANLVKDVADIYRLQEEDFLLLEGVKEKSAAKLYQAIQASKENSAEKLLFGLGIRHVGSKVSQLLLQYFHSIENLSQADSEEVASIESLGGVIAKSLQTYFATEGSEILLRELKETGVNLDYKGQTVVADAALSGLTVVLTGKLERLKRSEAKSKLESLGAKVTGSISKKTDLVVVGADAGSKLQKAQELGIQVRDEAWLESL
Test: DNA ligase inhibition, FRET detection assay
Type: biochemical
Details: ten compound concentrations; read-out: IC50 (μM) against S. pneumoniae LigA
Method: Compounds were tested for inhibition of DNA ligase using a Fluorescence Resonance Energy Transfer (FRET) detection assay as previously described (Chen et al. 2002. Analytical Biochemistry 309: 232-240; Benson et al. 2004. Analytical Biochemistry 324:298-300). Assays were performed in 384-well polystyrene flat-bottom black plates in 30 μl reactions containing 3 μl compound dissolved in dimethylsulfoxide, 20 μl 1.5× Enzyme Working Solution (25% glycerol, 45 mM potassium chloride, 45 mM ammonium sulfate, 15 mM dithiothreitol, 1.5 mM ethylenediaminetetraacetic acid (EDTA), 0.003% Brij 35, 75 mM MOPS pH 7.5, 150 nM bovine serum albumin, 1.5 μM NAD^+, 60 nM DNA substrate, 0.375 nM enzyme in water) and 7 μl […] magnesium chlorine solution (96 mM magnesium chloride, 20% glycerol in water) to initiate the reaction. The DNA substrate is similar to that described in Benson et al. (2004. Analytical Biochemistry 324:298-300). The assay reactions were incubated at room temperature for approximately 20 minutes before being terminated by the addition of 30 μl Quench reagent (8 M Urea, 1 M Trizma base, 20 mM EDTA in water). Plates were read in a Tecan Ultra plate reader at two separate wavelengths—Read 1: excitation 485, emission 535, Read 2: excitation 485, emission 595. Data is initially expressed as a ratio of the 595/535 emission values and percent inhibition values were calculated using […] dimethylsulfoxide (no compound) as the 0% inhibition and EDTA-containing (50 mM) reactions as 100% inhibition controls. Compound potency was based on IC50 measurements determined from reactions performed in the presence of ten different compound concentrations.

Row | Compound | IC50
6 | Nc1nc(OCC2CCCC2)nc2c1ncn2[C@@H]1O[C@H](CO)[C@@H](O)[C@H]1O [Example 172, 2-(Cyclopentyl)methoxy-9-β-D-ribofuranosyl-9H-purine-6-amine] | 0.145 µM
7 | Nc1nc(SCc2ccco2)nc2c1ncn2C1CCCO1 (stereo not shown) [Example 6, 2-[(2-furylmethyl)thio]-9-(tetrahydrofuran-2-yl)-9H-purin-6-amine] | 1.8 µM
8 | Nc1nc(OCc2ccccc2)nc2c1ncn2C1CCCO1 (stereo not shown) [Example 25, 2-(benzyloxy)-9-(tetrahydrofuran-2-yl)-9H-purin-6-amine] | 4 µM

Next, values leading:

Row | IC50 | Compound
9 | 0.5 µM | C=C[C@H]1O[C@@H](n2cnc3c(N)nc(OC4CCCC4)nc32)[C@H](O)[C@@H]1O [Example 259, 2-(cyclopentyloxy)-9-(5,6-dideoxy-β-D-ribo-hex-5-enofuranosyl)-9H-purin-6-amine]
10 | 0.7 µM | Nc1nc(OC2CCCC2)nc2c1ncn2C1OCCC1N (stereo not shown) [Example 128, 9-(3-aminotetrahydrofuran-2-yl)-2-(cyclopentyloxy)-9H-purin-6-amine]
